The target in this assay is T1, human PAD4 (Homo sapiens, UniProt Q9UM07).
T1 construct: human PAD4 (NM_012387), A2-P663, was PCR amplified; His-SUMO (N, cleaved yes); made in house; host or cells: E. coli BL21(DE3)
Description: In vitro PAD4 BAEE biochemical assay. The settings on record: BAEE substrate 3 mM, 5 nM PAD4, 2 mM calcium chloride; geometric mean of multiple experiments. In outline:
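Recombinant PAD4 (5 nM final) with 2 mM CaCl2 was preincubated with compound for 30 min at 25 °C in MOPS pH 7.6 buffer with DTT, then reacted with 3 mM BAEE for 2 h at 25 °C. Released ammonia was detected fluorimetrically with o-phthalaldehyde/DTT; IC50 from four-parameter fit, geometric mean of experiments.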

T1 sequence (Q9UM07 2-663): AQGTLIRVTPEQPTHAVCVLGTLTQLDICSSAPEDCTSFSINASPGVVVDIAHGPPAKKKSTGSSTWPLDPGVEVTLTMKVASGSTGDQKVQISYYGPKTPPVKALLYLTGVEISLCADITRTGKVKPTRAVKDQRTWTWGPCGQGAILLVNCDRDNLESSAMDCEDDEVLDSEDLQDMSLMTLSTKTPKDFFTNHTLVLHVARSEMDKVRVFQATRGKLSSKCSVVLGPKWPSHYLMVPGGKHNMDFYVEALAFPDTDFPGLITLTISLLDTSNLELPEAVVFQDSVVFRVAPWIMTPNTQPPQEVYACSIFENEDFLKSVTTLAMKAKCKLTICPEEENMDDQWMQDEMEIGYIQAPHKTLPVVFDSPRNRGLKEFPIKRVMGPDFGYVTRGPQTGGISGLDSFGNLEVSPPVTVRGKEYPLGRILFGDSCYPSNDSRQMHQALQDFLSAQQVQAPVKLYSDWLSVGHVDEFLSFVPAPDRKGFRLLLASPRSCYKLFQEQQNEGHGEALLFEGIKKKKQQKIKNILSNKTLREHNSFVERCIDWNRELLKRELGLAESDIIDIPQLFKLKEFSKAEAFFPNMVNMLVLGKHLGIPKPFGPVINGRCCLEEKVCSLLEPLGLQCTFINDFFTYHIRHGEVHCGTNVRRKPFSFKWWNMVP

By IC50 is commonly meant the concentration that gives 50% inhibition. For the compound `C[C@H]1NC(=O)[C@@H]2C[C@H]2CC(F)(F)CCCn2c(-c3nc4cc(C(=O)N5C[C@H](N)[C@@H]6CC[C@H]5C6)cc(F)c4n3C3CC3)cc3ccc1nc32` [Example 881, (2~{R},5~{R},7~{S})-14-[5-[(1~{S},4~{R},5~{R})-4-amino-2-azabicyclo [3.2.1]octane-2-carbonyl]-1-cyclopropyl-7-fluoro-benzimidazol-2-yl]-9,9-difluoro-2-methyl-3,13,19-triazatetracyclo [11.5.2.0^{5,7}.0^{16,20}] icosa-1(19),14,16(20), 17-tetraen-4-one], the half-maximal inhibitory concentration (IC50) was 24 nM. `COc1cc(C(=O)N2CCC[C@@H](N)C2)cc2nc(-c3cc4ccc5nc4n3C[C@@H]3C[C@H]3CC[C@H]3C[C@@H]3C(=O)N[C@@H]5C)n(C)c12` [Example 167, (3~{R},5~{R},8~{S},10~{S},13~{R})-19-[5-[(3~{R})-3-aminopiperidine-1-carbonyl]-7-methoxy-1-methyl-benzimidazol-2-yl]-13-methyl-1,12,21-triazapentacyclo[12.5.2.0^{3,5}.0^{8,10}.0^ {17,20}]henicosa-14(21),15,17(20),18-tetraen-11-one]: the half-inhibitory concentration (IC50) came to 90 nM.

`COc1cc(C(=O)N2CC[C@@H](OC)[C@@H](N)C2)cc2nc(-c3cc4ccc5nc4n3CCCCCC[C@@](C)(c3ccccn3)C(=O)N[C@@H]5C)n(C)c12` [Example 862, (8~{S},11~{R})-17-[5-[(3~{S}, 4~{R})-3-amino-4-methoxy-piperidine-1-carbonyl]-7-methoxy-1-methyl-benzimidazol-2-yl]-8,11-dimethyl-8-(2-pyridyl)-1,10,19-triazatricyclo[10.5.2.0^{15,18}] nonadeca-12(19), 13,15(18),16-tetraen-9-one]: the IC50 was determined as 78 nM. `COc1cc(C(=O)N2C[C@H](N)[C@@H]3CC[C@H]2C3)cc2nc(-c3cc4ccc5nc4n3CCCCCc3c(ccc(F)c3F)C(=O)N[C@@H]5C)n(C)c12` [Example 906, (2~{R})-17-[5-[(1~{S},4~{R}, 5~{R})-4-amino-2-azabicyclo [3.2.1]octane-2-carbonyl]-7-methoxy-1-methyl-benzimidazol-2-yl]-8,9-difluoro-2-methyl-3,16,22-triazatetracyclo [14.5.2.0^{5,10).0^{19,23}] tricosa-1(22),5(10),6,8,17, 19(23),20-heptaen-4-one]: the IC50 was 55 nM. For `COc1cc(C(=O)NC2CNC2)cc2nc(-c3cc4ccc5nc4n3CCCCCCC(C)(C)C(=O)N[C@@H]5C)n(C)c12` [Example 177, ~{N}-(azetidin-3-yl)-7-methoxy-1-methyl-2-[(11~{R})-8,8,11-trimethyl-9-oxo-1,10,19-triazatricyclo[10.5.2.0^{15,18}]nonadeca-12(19),13,15(18),16-tetraen-17-yl]benzimidazole-5-carboxamide], the IC50 is 30500 nM.

Consider `COc1cc(C(=O)N[C@H]2CNCC[C@@H]2F)cc2nc(-c3cc4ccc5nc4n3CCCCCCC(C)(C)C(=O)N[C@@H]5C)n(C)c12` [Example 75, ~{N}-[(3~{S},4~{S})-4-fluoro-3-piperidyl]-7-methoxy-1-methyl-2-[(11~{R})-8,8,11-trimethyl-9-oxo-1,10,19-triazatricyclo[10.5.2.0^{15,18}]nonadeca-12(19),13,15(18),16-tetraen-17-yl]benzimidazole-5-carboxamide], for which the IC50 worked out at 103 nM. Regarding `CO[C@@H]1CCN(C(=O)c2cc(F)c3c(c2)nc(-c2cc4ccc5nc4n2CCCCCc2nc4ccsc4cc2C(=O)N[C@@H]5C)n3C2CC2)C[C@@H]1N` [Example 797, (2~{R})-20-[5-[(3~{S},4~{R})-3-amino-4-methoxy-piperidine-1-carbonyl]-1-cyclopropyl-7-fluoro-benzimidazol-2-yl]-2-methyl-8-thia-3,12,19,25-tetrazapentacyclo[17.5.2.0^ {5,13}.0^{7,11}.0^{22,26}] hexacosa-1(24),5(13), 6,9,11,20,22,25-octaen-4-one], the 50% inhibitory concentration (IC50) was determined as 16 nM. Take `C[C@H]1NC(=O)C(C)(C)CCCCCCn2c(-c3nc4cc(C(=O)N[C@H]5CNCC[C@@H]5F)c(F)cc4n3C)cc3ccc1cc32` [Example 565, 6-fluoro-~{N}-[(3~{S}, 4~{S})-4-fluoro-3-piperidyl]-1-methyl-2-[(11~{R})-8,8,11-trimethyl-9-oxo-1,10-diazatricyclo[10.5.2.0^ {15,18}]nonadeca-12(19),13,15(18),16-tetraen-17-yl] benzimidazole-5-carboxamide]: the IC50 was 41 nM. For `C[C@H]1NC(=O)c2ccccc2CCCCCn2c(-c3nc4cc(C(=O)N[C@H]5CNCC[C@@H]5F)c(F)cc4n3C)cc3ccc1nc32` [Example 593, 6-fluoro-~{N}-[(3~{S},4~ {S})-4-fluoro-3-piperidyl]-1-methyl-2-[(2~{R})-2-methyl-4-oxo-3,16,22-triazatetracyclo[14.5.2.0^ {5,10}.0^{19,23}]tricosa-1(21),5(10),6,8,17, 19,22-heptaen-17-yl] benzimidazole-5-carboxamide], the IC50 was 44 nM. The same measure for `C[C@@H]1c2ccc3cc(-c4nc5cc(C(=O)N6C[C@H](N)[C@@H]7CC[C@H]6C7)cc(F)c5n4C4CC4)n(c3n2)CC(F)(F)CCC[C@H]2C[C@H]2C(=O)N1C` [Example 683, (2~{R},5~{R},7~{S})-14-[5-[(1~{S},4~{R},5~ {R})-4-amino-2-azabicyclo[3.2.1]octane-2-carbonyl]-1-cyclopropyl-7-fluoro-benzimidazol-2-yl]-11,11-difluoro-2,3-dimethyl-3,13,19-triazatetracyclo [11.5.2.0^{5,7}.0^{16,20}] icosa-1(19),14,16(20), 17-tetraen-4-one]: 16 nM.

In the case of `C[C@H]1NC(=O)[C@@]2(C)C[C@@H]2C/C=C/C(F)(F)Cn2c(-c3nc4cc(C(=O)N[C@H]5CNCC[C@@H]5F)c(F)cc4n3C)cc3ccc1nc32` [Example 552, 2-[(2~{R},5~{S},7~{S}, 9~{E})-11,11-difluoro-2,5-dimethyl-4-oxo-3,13,19-triazatetracyclo[11.5.2.0^ {5,7}.0^{16,20}]icosa-1(19),9,14,16(20), 17-pentaen-14-yl]-6-fluoro-~{N}-[(3~{S},4~ {S})-4-fluoro-3-piperidyl]-1-methyl-benzimidazole-5-carboxamide], the IC50 worked out at 61 nM. Consider `C[C@H]1NC(=O)[C@H]2C[C@@H]2CCCCCn2c(-c3nc4cc(C(=O)N[C@H]5CNCC[C@@H]5F)c(F)cc4n3C3CC3)cc3ccc1nc32` [Example 539, 1-cyclopropyl-6-fluoro-~{N}-[(3~{S},4~{S})-4-fluoro-3-piperidyl]-2-[(2~{R},5~{S},7~ {S})-2-methyl-4-oxo-3,13,19-triazatetracyclo [11.5.2.0^{5,7}.0^{16,20}]icosa-1(19),14,16 (20),17-tetraen-14-yl]benzimidazole-5-carboxamide], for which the IC50 turned out to be 175 nM. On to `C[C@H]1NC(=O)C(C)(C)CCCCCCn2c(-c3nc4cc(C(=O)N5CCC[C@@H](N)C5)ccc4n3C3CC3)cc3ccc1nc32` [Example 117, (11~{R})-17-[5-[(3~{R})-3-aminopiperidine-1-carbonyl]-1-cyclopropyl-benzimidazol-2-yl]-8,8,11-trimethyl-1,10,19-triazatricyclo[10.5.2.0^{15,18}]nonadeca-12(19),13,15(18),16-tetraen-9-one], for which the IC50 stood at 54 nM.
